Laboratory results reported in patent US20150141381A1, “TETRACYCLINE COMPOUNDS HAVING TARGET THERAPEUTIC ACTIVITIES” (Paratek Pharmaceuticals, Inc., priority 2001, published 2015).
Read-outs that look alike come from different tables or passages of the source.

Experiments:
S. aureus RN450 = assay: In Vitro Anti-Bacterial Activity Assay (MIC), gram positive; format: cell-based; conditions: for MIC: Staphylococcus aureus, RN450, 18 h
E. coli mL308 225 = assay: In Vitro Anti-Bacterial Activity Assay (MIC), gram negative; format: cell-based; conditions: for MIC: Escherichia coli, ML308225, 18 h
[1] = MIC class, Table 3 (Continued), read-out: Gram+ activity
[2] = MIC class, Table 3 (Continued), read-out: Gram− activity
[3] = MIC class, Table 3, read-out: Antibiotic Activity Gram +
[4] = MIC class, Table 3, read-out: Antibiotic Activity Gram −
[5] = gram positive bacteria, read-out: Antibiotic Activity Gram + (MIC)
[6] = gram negative bacteria, read-out: Antibiotic Activity Gram − (MIC)

SMILES: CN(C)[C@@H]1C(O)=C(C(N)=O)C(=O)[C@@]2(O)C(O)=C3C(=O)c4c(O)cccc4/C(=C\c4ccc(F)cc4)[C@H]3[C@H](O)[C@@H]12
- MIC (S. aureus RN450; [1]): < 4 µg/mL
- MIC (E. coli mL308 225; [2]): < 4 µg/mL

SMILES: COc1ccc(CNC(C)C)cc1-c1ccc(O)c2c1C[C@H]1C[C@H]3[C@H](N(C)C)C(O)=C(C(N)=O)C(=O)[C@@]3(O)C(O)=C1C2=O [LR]
- MIC (S. aureus RN450; [3]): < 4 µg/mL
- MIC (E. coli mL308 225; [4]): < 4 µg/mL

SMILES: CCCCOC(=O)NCc1cc(N(C)C)c2c(c1O)C(=O)C1=C(O)[C@]3(O)C(=O)C(C(N)=O)=C(O)[C@H](N(C)C)[C@@H]3C[C@@H]1C2 [ER]
- MIC (S. aureus RN450; [3]): < 4 µg/mL
- MIC (E. coli mL308 225; [4]): > 4 µg/mL

SMILES: CN(C)[C@@H]1C(O)=C(C(N)=O)C(=O)[C@@]2(O)C(O)=C3C(=O)c4c(ccc(NC(=O)CCCC(=O)O)c4O)C[C@H]3C[C@@H]12 [HX]
- MIC (S. aureus RN450; [3]): > 4 µg/mL
- MIC (E. coli mL308 225; [4]): > 4 µg/mL

SMILES: COc1ccc(-c2ccc(O)c3c2C[C@H]2C[C@H]4[C@H](N(C)C)C(O)=C(C(N)=O)C(=O)[C@@]4(O)C(O)=C2C3=O)cc1C=O [HW]
- MIC (S. aureus RN450; [3]): < 4 µg/mL
- MIC (E. coli mL308 225; [4]): < 4 µg/mL

SMILES: CN(C)Cc1cc(-c2ccoc2)c2c(c1O)C(=O)C1=C(O)[C@]3(O)C(=O)C(C(N)=O)=C(O)[C@@H](N(C)C)[C@@H]3C[C@@H]1C2
- MIC (S. aureus RN450; [5]): < 4 µg/mL
- MIC (E. coli mL308 225; [6]): > 4 µg/mL

SMILES: CN(C)c1cc(-c2ccc(C(=O)O)cc2)c(O)c2c1C[C@H]1C[C@H]3[C@@H](N(C)C)C(O)=C(C(N)=O)C(=O)[C@@]3(O)C(O)=C1C2=O [AP]
- MIC (S. aureus RN450; [3]): > 4 µg/mL
- MIC (E. coli mL308 225; [4]): > 4 µg/mL

SMILES: Cc1cc(-c2ccc(O)c3c2C[C@H]2C[C@H]4[C@H](N(C)C)C(O)=C(C(N)=O)C(=O)[C@@]4(O)C(O)=C2C3=O)ccc1F
- MIC (S. aureus RN450; [5]): < 4 µg/mL
- MIC (E. coli mL308 225; [6]): < 4 µg/mL

SMILES: CCOC(=O)c1cccc(-c2ccc(O)c3c2C[C@H]2C[C@H]4[C@H](N(C)C)C(O)=C(C(N)=O)C(=O)[C@@]4(O)C(O)=C2C3=O)c1
- MIC (S. aureus RN450; [1]): < 4 µg/mL
- MIC (E. coli mL308 225; [2]): < 4 µg/mL

SMILES: CC(=O)NCc1cc(N(C)C)c2c(c1O)C(=O)C1=C(O)[C@]3(O)C(=O)C(C(N)=O)=C(O)[C@@H](N(C)C)[C@@H]3C[C@@H]1C2
- MIC (S. aureus RN450; [5]): < 4 µg/mL
- MIC (E. coli mL308 225; [6]): > 4 µg/mL

SMILES: COc1ccc(C=O)cc1-c1ccc(O)c2c1C[C@H]1C[C@H]3[C@@H](N(C)C)C(O)=C(C(N)=O)C(=O)[C@@]3(O)C(O)=C1C2=O [GO]
- MIC (S. aureus RN450; [3]): < 4 µg/mL
- MIC (E. coli mL308 225; [4]): > 4 µg/mL

SMILES: COC(=O)CCc1cccc(-c2ccc(O)c3c2C[C@H]2C[C@H]4[C@H](N(C)C)C(O)=C(C(N)=O)C(=O)[C@@]4(O)C(O)=C2C3=O)c1
- MIC (S. aureus RN450; [5]): < 4 µg/mL
- MIC (E. coli mL308 225; [6]): > 4 µg/mL

SMILES: CN(C)[C@@H]1C(O)=C(C(N)=O)C(=O)[C@@]2(O)C(O)=C3C(=O)c4c(O)ccc(-c5ccc(CNCC(F)(F)F)cc5)c4C[C@H]3C[C@@H]12 [drawing 3506]
- Antibiotic Activity Gram + (MIC) (S. aureus RN450; gram positive bacteria): ** (compounds with MIC less than or equal to 4 μg/ml are indicated with **)
- Antibiotic Activity Gram − (MIC) (E. coli mL308 225; gram negative bacteria): ** (compounds with MIC less than or equal to 4 μg/ml are indicated with **)

SMILES: CN(C)c1cc(CNCC(C)(C)C)c(O)c2c1C[C@H]1C[C@H]3[C@H](N(C)C)C(O)=C(C(N)=O)C(=O)[C@@]3(O)C(O)=C1C2=O [FD]
- MIC (S. aureus RN450; [3]): < 4 µg/mL
- MIC (E. coli mL308 225; [4]): < 4 µg/mL

SMILES: CN(C)[C@@H]1C(O)=C(C(N)=O)C(=O)[C@@]2(O)C(O)=C3C(=O)c4c(O)cccc4C(CSCc4ccccc4)[C@H]3[C@H](O)[C@@H]12 (stereo partly drawn)
- MIC (S. aureus RN450; [1]): < 4 µg/mL
- MIC (E. coli mL308 225; [2]): < 4 µg/mL

SMILES: CN1C=CC(Nc2cc(C3=COCC3)c3c(c2O)C(=O)C2=C(O)[C@]4(O)C(=O)C(C(N)=O)=C(O)[C@@H](N(C)C)[C@@H]4C[C@@H]2C3)CC1 (stereo partly drawn)
- MIC (S. aureus RN450; [5]): < 4 µg/mL
- MIC (E. coli mL308 225; [6]): > 4 µg/mL

SMILES: COCc1ccc(O)c2c1C[C@H]1C[C@H]3[C@H](N(C)C)C(O)=C(C(N)=O)C(=O)[C@@]3(O)C(O)=C1C2=O
- MIC (S. aureus RN450; [5]): < 4 µg/mL
- MIC (E. coli mL308 225; [6]): < 4 µg/mL

SMILES: Cc1ccc(-c2ccc(O)c3c2C[C@H]2C[C@H]4[C@H](N(C)C)C(O)=C(C(N)=O)C(=O)[C@@]4(O)C(O)=C2C3=O)s1
- MIC (S. aureus RN450; [1]): < 4 µg/mL
- MIC (E. coli mL308 225; [2]): < 4 µg/mL
